Results from patent US20260258035A1, “FIVE-MEMBERED AND SIX-MEMBERED NITROGEN-CONTAINING COMPOUND, AND INTERMEDIATE, PREPARATION METHOD AND USE THEREOF” (HANGZHOU SYNRX THERAPEUTICS BIOMEDICAL TECHNOLOGY CO., LTD., priority 2022, published 2026).
Read-outs that look alike come from different tables or passages of the source.

What was measured:
HCC1806 = assay: Cell viability assay (CellTiter-Glo); type: cell-based, Human; settings: HCC1806, 7 days, CellTiter-Glo, read-out: IC50 (nM) in cell viability assay
PARG = PARG (Homo sapiens, UniProt Q86W56); assay: Biochemical assay (PARG, TFMU-ADPr substrate)
Sequence of PARG (Q86W56 whole entry): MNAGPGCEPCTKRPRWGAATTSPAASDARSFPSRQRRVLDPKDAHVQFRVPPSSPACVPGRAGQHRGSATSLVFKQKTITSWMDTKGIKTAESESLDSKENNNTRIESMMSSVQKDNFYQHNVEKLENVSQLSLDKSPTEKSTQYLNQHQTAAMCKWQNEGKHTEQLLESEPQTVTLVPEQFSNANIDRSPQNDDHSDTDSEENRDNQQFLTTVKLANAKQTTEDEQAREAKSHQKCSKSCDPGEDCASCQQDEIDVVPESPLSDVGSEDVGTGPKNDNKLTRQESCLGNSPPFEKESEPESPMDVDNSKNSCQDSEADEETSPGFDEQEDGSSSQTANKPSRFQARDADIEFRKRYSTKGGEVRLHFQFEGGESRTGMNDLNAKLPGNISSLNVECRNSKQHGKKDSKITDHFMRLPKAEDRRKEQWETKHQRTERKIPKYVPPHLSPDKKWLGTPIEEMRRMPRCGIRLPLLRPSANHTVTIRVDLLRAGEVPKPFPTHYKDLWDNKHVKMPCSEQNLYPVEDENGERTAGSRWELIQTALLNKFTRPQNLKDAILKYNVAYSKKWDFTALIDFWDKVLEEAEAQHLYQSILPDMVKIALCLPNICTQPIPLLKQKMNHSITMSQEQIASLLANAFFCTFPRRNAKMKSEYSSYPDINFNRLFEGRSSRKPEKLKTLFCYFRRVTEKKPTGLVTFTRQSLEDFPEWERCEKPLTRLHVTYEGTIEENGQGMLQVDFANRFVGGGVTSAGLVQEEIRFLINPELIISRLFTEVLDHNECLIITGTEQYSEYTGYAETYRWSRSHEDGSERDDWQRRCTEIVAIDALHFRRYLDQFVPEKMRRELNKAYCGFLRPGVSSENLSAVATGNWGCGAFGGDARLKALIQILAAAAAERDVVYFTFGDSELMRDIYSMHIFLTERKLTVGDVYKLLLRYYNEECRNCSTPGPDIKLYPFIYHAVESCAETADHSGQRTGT

| IC50 (HCC1806; Homo sapiens, HCC1806, 168 h) [nM] | IC50 (PARG; PARG, TFMU-ADPr substrate) [nM] | IC50 (HCC1806) [nM] | IC50 (PARG; 4 nM PARG, 66.2 uM TFMU-ADPr, 3 min at room temperature) [nM] | SMILES |
| --- | --- | --- | --- | --- |
| 151 | 1.78 |  |  | C[C@H]1CN(c2cc(S(=O)(=O)NC3(C)COC3)cn3c(-c4nnc(C(F)F)s4)ncc23)CCN1 [Example 181, (S)-3-(5-(difluoromethyl)-1,3,4-thiadiazol-2-yl)-N-(3-methyloxetan-3-yl)-8-(3-methylpiperazin-1-yl)imidazo[1,5-a]pyridine-6-sulfonamide] |
| 18 | 1.15 |  |  | C[C@H]1CN(c2cc(S(=O)(=O)NC3(C)COC3)cn3c(-c4nnc(C(F)(F)F)s4)ncc23)C[C@H](C)N1 [Example 184, 8-((3S,5S)-3,5-dimethylpiperazin-1-yl)-N-(3-methyloxetan-3-yl)-3-(5-(trifluoromethyl)-1,3,4-thiadiazol-2-yl)imidazo[1,5-a]pyridine-6-sulfonamide] |
| 26.8 | 0.91 |  |  | [2H]C([2H])([2H])OC1(C(=O)N2CCN(c3cc(S(=O)(=O)NC4(C)COC4)cn4c(-c5nnc(C(F)(F)F)s5)ncc34)CC2)CC1 [Example 183, 8-(4-(1-(methoxy-d3)cyclopropane-1-carbonyl)piperazin-1-yl)-N-(3-methyloxetan-3-yl)-3-(5-(trifluoromethyl)-1,3,4-thiadiazol-2-yl)imidazo[1,5-a]pyridine-6-sulfonamide] |
| 5000 to 30000 | 263 | 7020 | 100 to 500 | C[C@@H]1CN(c2cc(S(=O)(=O)NC3(C#N)CC3)cn3c(-c4nnc(C(F)F)s4)ncc23)CCN1C(CO)C(F)(F)F (stereo partly drawn) [Example 144, N-(1-cyanocyclopropyl)-3-(5-(difluoromethyl)-1,3,4-thiadiazol-2-yl)-8-((3R)-3-methyl-4-(1,1,1-trifluoro-3-hydroxypropan-2-yl)piperazin-1-yl)imidazo[1,5-a]pyridine-6-sulfonamide] |
| 400 | 50.1 |  |  | CC(=O)N1CCN(c2cc(S(=O)(=O)NC3(C#N)CC3)cn3c(-c4nnc(C(F)(F)F)s4)ncc23)CC1 [Example 173, 8-(4-acetylpiperazin-1-yl)-N-(1-cyanocyclopropyl)-3-(5-(trifluoromethyl)-1,3,4-thiadiazol-2-yl)imidazo[1,5-a]pyridine-6-sulfonamide] |
| 4940 | 4.37 |  |  | N#CC1(NS(=O)(=O)c2cc(N3CCN(C(=O)c4ccn[nH]4)CC3)c3cnc(-c4nnc(C(F)(F)F)s4)n3c2)CC1 [Example 235, 8-(4-(1H-pyrazole-5-carbonyl)piperazin-1-yl)-N-(1-cyanocyclopropyl)-3-(5-(trifluoromethyl)-1,3,4-thiadiazol-2-yl)imidazo[1,5-a]pyridine-6-sulfonamide] |
| 109 | 1.53 |  |  | COCC1(O)CCN(c2cc(S(=O)(=O)NC3(C)CC3)cn3c(-c4nnc(C(F)F)s4)ncc23)CC1 [Example 346, 3-(5-(difluoromethyl)-1,3,4-thiadiazol-2-yl)-8-(4-hydroxy-4-(methoxymethyl)piperidin-1-yl)-N-(1-methylcyclopropyl)imidazo[1,5-a]pyridine-6-sulfonamide] |
| 240 | 41.7 |  |  | CC(=O)N1CC=C(c2cc(S(=O)(=O)NC3(C#N)CC3)cn3c(-c4nnc(C(F)(F)F)s4)ncc23)CC1 [Example 370, 8-(1-acetyl-1,2,3,6-tetrahydropyridin-4-yl)-N-(1-cyanocyclopropyl)-3-(5-(trifluoromethyl)-1,3,4-thiadiazol-2-yl)imidazo[1,5-a]pyridine-6-sulfonamide] |
| 84.8 | 3.21 |  |  | COC1(C(=O)N2CCN(c3cc(S(=O)(=O)NC4CC4)cn4c(-c5nnc(C(F)(F)F)s5)ncc34)CC2)CC1 [Example 194, N-cyclopropyl-8-(4-(1-methoxycyclopropane-1-carbonyl)piperazin-1-yl)-3-(5-(trifluoromethyl)-1,3,4-thiadiazol-2-yl)imidazo[1,5-a]pyridine-6-sulfonamide] |
| 147 | 5.62 |  |  | CC1(NS(=O)(=O)c2cc(N3CCN(C(=O)[C@H]4CCN4CCCF)CC3)c3cnc(-c4nnc(C(F)(F)F)s4)n3c2)CC1 [Example 319, (R)-8-(4-(1-(3-fluoropropyl)azetidine-2-carbonyl)piperazin-1-yl)-N-(1-methylcyclopropyl)-3-(5-(trifluoromethyl)-1,3,4-thiadiazol-2-yl)imidazo[1,5-a]pyridine-6-sulfonamide] |
| 128 | 0.53 |  |  | C[C@H]1CN(c2cc(S(=O)(=O)NC3(C)COC3)cn3c(-c4nnc(C(F)F)s4)cnc23)C[C@H](C)N1 [Example 182, 3-(5-(difluoromethyl)-1,3,4-thiadiazol-2-yl)-8-((3S,5S)-3,5-dimethylpiperazin-1-yl)-N-(3-methyloxetan-3-yl)imidazo[1,2-a]pyridine-6-sulfonamide] |
| 1020 | 33.1 |  |  | [2H]c1nc(-c2nnc(C(F)(F)F)s2)n2cc(S(=O)(=O)NC3(C#N)CC3)cc(N3CCN(C(=O)C4CC4)CC3)c12 [Example 157, N-(1-cyanocyclopropyl)-8-(4-(cyclopropanecarbonyl)piperazin-1-yl)-3-(5-(trifluoromethyl)-1,3,4-thiadiazol-2-yl)imidazo[1,5-a]pyridine-6-sulfonamide-1-d] |

The remaining lines, values behind:

| SMILES | IC50 (HCC1806; Homo sapiens, HCC1806, 168 h) [nM] | IC50 (PARG; PARG, TFMU-ADPr substrate) [nM] | IC50 (HCC1806) [nM] | IC50 (PARG; 4 nM PARG, 66.2 uM TFMU-ADPr, 3 min at room temperature) [nM] |
| --- | --- | --- | --- | --- |
| CC1(NS(=O)(=O)c2cc(N3CCN4C(=O)NCC4C3)c3cnc(-c4nnc(C(F)(F)F)s4)n3c2)COC1 (centres unmarked) [Example 394, N-(3-methyloxetan-3-yl)-8-(3-oxohexahydroimidazo[1,5-a]pyrazin-7(1H)-yl)-3-(5-(trifluoromethyl)-1,3,4-thiadiazol-2-yl)imidazo[1,5-a]pyridine-6-sulfonamide] | 1700 | 6.56 |  |  |
| N#CC1(NS(=O)(=O)c2cc(C3=CCN(S(=O)(=O)C4CC4)CC3)c3cnc(-c4nnc(C(F)(F)F)s4)n3c2)CC1 [Example 369, N-(1-cyanocyclopropyl)-8-(1-(cyclopropylsulfonyl)-1,2,3,6-tetrahydropyridin-4-yl)-3-(5-(trifluoromethyl)-1,3,4-thiadiazol-2-yl)imidazo[1,5-a]pyridine-6-sulfonamide] | 505 | 1.91 |  |  |
| CC(C)C(=O)N1CCN(c2cc(S(=O)(=O)NC3CC3)cn3c(-c4nnc(C(F)(F)F)s4)cnc23)CC1 [Example 208, N-cyclopropyl-8-(4-isobutyrylpiperazin-1-yl)-3-(5-(trifluoromethyl)-1,3,4-thiadiazol-2-yl)imidazo[1,2-a]pyridine-6-sulfonamide] | 3350 | 110 |  |  |
| CO[C@H]1C[C@H](C(=O)N2CCN(c3cc(S(=O)(=O)NC4(C#N)CC4)cn4c(-c5nnc(C(F)(F)F)s5)ncc34)CC2)C1 [Example 245, N-(1-cyanocyclopropyl)-8-(4-((1r,3r)-3-methoxycyclobutane-1-carbonyl)piperazin-1-yl)-3-(5-(trifluoromethyl)-1,3,4-thiadiazol-2-yl)imidazo[1,5-a]pyridine-6-sulfonamide] | 2360 | 28.8 |  |  |
| CC(C)C(=O)N1CCN(c2cc(S(=O)(=O)NC3(C#N)CC3)cn3c(-c4nnc(C(F)F)s4)cnc23)C[C@H]1C [Example 206, (R)-N-(1-cyanocyclopropyl)-3-(5-(difluoromethyl)-1,3,4-thiadiazol-2-yl)-8-(4-isobutyryl-3-methylpiperazin-1-yl)imidazo[1,2-a]pyridine-6-sulfonamide] | 1180 | 21.9 |  |  |
| N#CC1(NS(=O)(=O)c2cc(N3CC[C@H](O)C3)c3cnc(-c4nnc(C(F)(F)F)s4)n3c2)CC1 [Example 239, (S)-N-(1-cyanocyclopropyl)-8-(3-hydroxypyrrolidin-1-yl)-3-(5-(trifluoromethyl)-1,3,4-thiadiazol-2-yl)imidazo[1,5-a]pyridine-6-sulfonamide] | 9790 | 380 |  |  |
| CC(C)C(=O)N1CCN(c2cc(S(=O)(=O)NC3CC3)cn3c(-c4nnc(C(F)F)s4)nc(Cl)c23)C[C@H]1C [Example 131, (R)-1-chloro-N-cyclopropyl-3-(5-(difluoromethyl)-1,3,4-thiadiazol-2-yl)-8-(4-isobutyryl-3-methylpiperazin-1-yl)imidazo[1,5-a]pyridine-6-sulfonamide] | 1680 | 22.9 |  |  |
| Cc1nc(-c2nnc(C(F)(F)F)s2)n2cc(S(=O)(=O)NC3(C#N)CC3)cc(N3CCN(C(=O)C4CCO4)CC3)c12 (centres unmarked) [Example 172, N-(1-cyanocyclopropyl)-1-methyl-8-(4-(oxetane-2-carbonyl)piperazin-1-yl)-3-(5-(trifluoromethyl)-1,3,4-thiadiazol-2-yl)imidazo[1,5-a]pyridine-6-sulfonamide] | 308 | 10 |  |  |
| CC(C)C(=O)N1CCN(c2cc(S(=O)(=O)NC3(C)CC3)cn3c(-c4nnc(C(F)(F)F)s4)nnc23)CC1 [Example 388, 8-(4-isobutyrylpiperazin-1-yl)-N-(1-methylcyclopropyl)-3-(5-(trifluoromethyl)-1,3,4-thiadiazol-2-yl)-[1,2,4]triazolo[4,3-a]pyridine-6-sulfonamide] | 320 | 10 |  |  |
| Cn1ccnc1N1CCN(c2cc(S(=O)(=O)NC3(C#N)CC3)cn3c(-c4nnc(C(F)(F)F)s4)ncc23)CC1 [Example 238, N-(1-cyanocyclopropyl)-8-(4-(1-methyl-1H-imidazol-2-yl)piperazin-1-yl)-3-(5-(trifluoromethyl)-1,3,4-thiadiazol-2-yl)imidazo[1,5-a]pyridine-6-sulfonamide] | 15000 | 38 |  |  |
| N#CC1(NS(=O)(=O)c2cc(N3CCC4(CC3)COC4)c3cnc(-c4nnc(C(F)(F)F)s4)n3c2)CC1 [Example 209, N-(1-cyanocyclopropyl)-8-(2-oxa-7-azaspiro[3.5]nonan-7-yl)-3-(5-(trifluoromethyl)-1,3,4-thiadiazol-2-yl)imidazo[1,5-a]pyridine-6-sulfonamide] | 765 | 60.3 |  |  |
| N#CC1(NS(=O)(=O)c2cc(N3CCN(C(=O)[C@@H]4CCNC4)CC3)c3cnc(-c4nnc(C(F)(F)F)s4)n3c2)CC1 [Example 271, (R)-N-(1-cyanocyclopropyl)-8-(4-(pyrrolidine-3-carbonyl)piperazin-1-yl)-3-(5-(trifluoromethyl)-1,3,4-thiadiazol-2-yl)imidazo[1,5-a]pyridine-6-sulfonamide] | 36200 | 11.5 |  |  |
